Data reported in PubChem BioAssay (NCI).
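How tested: cells in 96-well plates exposed to compound for 48 hours at five concentrations. Abbreviation: GI50, concentration required for 50% inhibition of growth. The concentration for full growth arrest is given as TGI.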

Key:
Assay in all cases: NCI-60 cell line screen, 48 h
SK-MEL-2 melanoma = system: SK-MEL-2 melanoma
NCI-H226 lung = system: NCI-H226 lung
U251 CNS = system: U251 CNS
SR leukemia = system: SR leukemia
UO-31 renal = system: UO-31 renal
MOLT-4 leukemia = system: MOLT-4 leukemia
SK-OV-3 ovarian = system: SK-OV-3 ovarian
BT-549 breast = system: BT-549 breast
RXF 393 renal = system: RXF 393 renal
OVCAR-5 ovarian = system: OVCAR-5 ovarian
EKVX NSCLC = system: EKVX NSCLC
SW-620 colon = system: SW-620 colon
TK-10 renal = system: TK-10 renal
A498 renal = system: A498 renal
HS 578T breast = system: HS 578T breast
A549 NSCLC = system: A549 NSCLC
COLO 205 colon = system: COLO 205 colon
NCI-H460 lung = system: NCI-H460 lung
HCT-15 colon = system: HCT-15 colon
MALME-3M melanoma = system: MALME-3M melanoma
SN12C renal = system: SN12C renal
SK-MEL-5 melanoma = system: SK-MEL-5 melanoma
HOP-62 NSCLC = system: HOP-62 NSCLC
HCT-116 colon = system: HCT-116 colon
786-0 renal = system: 786-0 renal
PC-3 prostate = system: PC-3 prostate
MCF7 breast = system: MCF7 breast
UACC-62 melanoma = system: UACC-62 melanoma
HOP-92 NSCLC = system: HOP-92 NSCLC
K-562 leukemia = system: K-562 leukemia

With `CC(=C(c1ccc(OCCN2CCCCC2)cc1)c1ccc(OCCN2CCCCC2)cc1)c1ccccc1` the TGI (SK-MEL-2 melanoma) was 7.72 µM, the GI50 (NCI-H226 lung) was over 21.8 µM and the TGI (NCI-H226 lung) was over 21.8 µM. It also gave a GI50 (U251 CNS) of 3.76 µM, a TGI (U251 CNS) of 8.51 µM and a GI50 (SR leukemia) of 3.68 µM. For the same compound, the TGI (SR leukemia) was 11.5 µM, the GI50 (UO-31 renal) was 3.82 µM and the TGI (UO-31 renal) was 10.4 µM. The GI50 (MOLT-4 leukemia) was 4.15 µM, the TGI (MOLT-4 leukemia) was 12.9 µM and the GI50 (SK-OV-3 ovarian) was over 21.8 µM. The TGI (SK-OV-3 ovarian) was over 21.8 µM, the GI50 (BT-549 breast) was over 21.8 µM and the TGI (BT-549 breast) was over 21.8 µM. The GI50 (RXF 393 renal) was 3.21 µM, the TGI (RXF 393 renal) was 10.4 µM and the GI50 (OVCAR-5 ovarian) was 11.7 µM. It also gave a TGI (OVCAR-5 ovarian) of over 21.8 µM, a GI50 (EKVX NSCLC) of over 21.8 µM and a TGI (EKVX NSCLC) of over 21.8 µM. It also gave a GI50 (SW-620 colon) of 2.95 µM, a TGI (SW-620 colon) of 6.86 µM and a GI50 (TK-10 renal) of 16.7 µM. For the same compound, the TGI (TK-10 renal) was over 21.8 µM, the GI50 (A498 renal) was over 21.8 µM and the TGI (A498 renal) was over 21.8 µM. The GI50 (HS 578T breast) was 3.33 µM, the TGI (HS 578T breast) was 10.9 µM and the GI50 (A549 NSCLC) was 5.91 µM. It also gave a TGI (A549 NSCLC) of over 21.8 µM, a GI50 (COLO 205 colon) of 3.53 µM and a TGI (COLO 205 colon) of 7.61 µM. The GI50 (NCI-H460 lung) was 4.1 µM, the TGI (NCI-H460 lung) was 9.98 µM and the GI50 (HCT-15 colon) was 4.98 µM. The TGI (HCT-15 colon) was over 21.8 µM, the GI50 (MALME-3M melanoma) was 3.38 µM and the TGI (MALME-3M melanoma) was 6.31 µM. The GI50 (SN12C renal) was over 21.8 µM, the TGI (SN12C renal) was over 21.8 µM and the GI50 (SK-MEL-5 melanoma) was 3.64 µM. The TGI (SK-MEL-5 melanoma) was 6.87 µM, the GI50 (HOP-62 NSCLC) was 6.45 µM and the TGI (HOP-62 NSCLC) was over 21.8 µM. It also gave a GI50 (HCT-116 colon) of 3.43 µM, a TGI (HCT-116 colon) of 10.1 µM and a GI50 (786-0 renal) of 3.39 µM. It also gave a TGI (786-0 renal) of 6.91 µM, a GI50 (PC-3 prostate) of 8.19 µM and a TGI (PC-3 prostate) of over 21.8 µM. It also gave a GI50 (MCF7 breast) of 0.625 µM, a TGI (MCF7 breast) of 4.98 µM and a GI50 (UACC-62 melanoma) of 3.64 µM. The TGI (UACC-62 melanoma) was 6.83 µM, the GI50 (HOP-92 NSCLC) was 5.01 µM and the TGI (HOP-92 NSCLC) was over 21.8 µM. It also gave a GI50 (K-562 leukemia) of 3.26 µM and a TGI (K-562 leukemia) of over 21.8 µM.
